Several values for one entry are separate records, joined by “and”; a condition that tells them apart may be missing. Equal values may be shown once. Read-outs that look alike come from different tables or passages of the source.
Columns and labels:
[1] = tested on: A549 cells; assay: Growth inhibition of parental NSCLC cells; format: cell-based, human
Description: (§1) The growth inhibition rate GI50 was calculated by GraphPadPrism5.

[2] = tested on: paclitaxel-resistant A549/T cells; settings: for GI50: A549/T cells, salts (Table 3)
Description: (§6) Adherent cells: PC-3, HepG-2, HCT-116, and Hela cells were inoculated into a 96-well plate at a density of 1,000-3,500 cells/mL. After incubation overnight, 100 μL of culture medium supplemented with various concentrations of compounds was added to each well. After incubation for 96 h, 50 μL of methyl thiazolyl tetrazolium (MTT) solution (2 mg/mL) was added to each well and incubated at 37° C. for 4 h. The culture medium was suctioned, and the cells were dissolved in 200 μL of DMSO. The absorbance at 570 nm was measured by using a microplate reader. The growth inhibition rate GI50 was calculated by GraphPadPrism5.
(§7) The cells used in the assay included human NSCLC A549 cells and paclitaxel-resistant A549/T cells, human breast cancer MCF-7 cells and paclitaxel-resistant MCF-7/T cells, human breast cancer MX-1 cells and paclitaxel-resistant MX-1/T cells, and human oral epidermoid carcinoma KB cells and vincristine-resistant KB/V cells.
(§8) A549 and A549/T cells were cultured in 1640 Medium, while MX-1, MX-1/T, MCF-7, MCF-7/T, KB, and KB/V cells were cultured in DMEM supplemented with 10% inactivated FBS, 10 mmol/L L-glutamine, 100 U/mL penicillin, and 100 μg/mL streptomycin in a 37° C., 5% CO2 and saturated humidity incubator.
(§9) Cell lines used in the assay included human NSCLC A549 cells and paclitaxel-resistant A549/T cells.

[3] = tested on: paclitaxel-resistant A549/T cells; assay: cells; settings: Homo sapiens, A549, 96 h; for inhibition at 5 µM / inhibition at 10 µM / inhibition at 20 µM: read-out: Growth inhibition rate
Description: (§10) After incubation overnight, 100 μL of culture medium supplemented with various concentrations of compounds was added to each well. After incubation for 96 h, 50 μL of methyl thiazolyl tetrazolium (MTT) solution (2 mg/mL) was added to each well and incubated at 37° C. for 4 h. The culture medium was suctioned, and the cells were dissolved in 200 μL of DMSO. The absorbance at 570 nm was measured by using a microplate reader. The growth inhibition rate GI50 was calculated by GraphPadPrism5.

[4] = biological target: T1, Porcine brain tubulin (Sus scrofa, UniProt P02550+P02554)
Description: In vitro tubulin polymerization assay was carried out using purified tubulin. BK011P-Tubulin Polymerization Assay Kit (Cytoskeleton, Denver, CO) was used. Porcine brain tubulin solution (2 mg/mL) was prepared by using tubulin buffer (80 mM PIPES, 2.0 mM MgCl2, 0.5 mM EGTA, 15% v/v glycerol, and 1 mM GTP). […] Fluorescence intensities (ex-360 nm, em-450 nm) was measured and monitored every 1 min, for consecutive 80 min (FIG. 2).

[5] = tested on: paclitaxel-resistant MX-1/T cells; assay: Growth inhibition of paclitaxel-resistant breast cancer cells; settings: for GI50: Homo sapiens, read-out: GI50 ± SD; for RI: resistance index: ratio of GI50 MX-1/T to MX-1
Description: as §6, §7, §8

[6] = tested on: KB cells; assay: Growth inhibition of parental oral epidermoid carcinoma cells; format: cell-based; settings: Homo sapiens
Description: as §1

[7] = tested on: MX-1 cells; assay: Growth inhibition of parental breast cancer cells; format: cell-based; settings: Homo sapiens, MX1; MX-1 parental cells
Description: as §1

[8] = tested on: MCF-7 cells; assay: Growth inhibition of parental breast cancer cells; format: cell-based; settings: Homo sapiens, MCF7; MCF-7 parental cells
Description: as §1

[9] = tested on: vincristine-resistant KB/V cells; assay: Growth inhibition of vincristine-resistant oral epidermoid carcinoma cells; settings: for GI50: Homo sapiens, KBV, read-out: GI50 ± SD; for RI: resistance index: ratio of GI50 KB/V to KB
Description: as §6, §7, §8

[10] = biological target: T1, Porcine brain tubulin; design: In vitro tubulin polymerization assay was carried out using purified tubulin; purchased Cytoskeleton, Denver, CO BK011P; host or cells: porcine brain (tissue-purified); settings: It has been known; cited from earlier work
[11] = tested on: paclitaxel-resistant MCF-7/T cells; assay: Growth inhibition of paclitaxel-resistant breast cancer cells; format: cell-based, human; settings: for GI50: Homo sapiens, MCF7, MCF-7/T paclitaxel-resistant cells; for RI: resistance index: ratio of GI50 MCF-7/T to MCF-7
Description: as §1

[12] = tested on: paclitaxel-resistant A549/T cells; assay: cells; settings: Homo sapiens, A549, read-out: GI50 ± SD
Description: as §6, §7, §8, §9

[13] = tested on: PC-3; assay: Cell growth inhibition assay, adherent cells, MTT, 96 h; format: cell-based; settings: Homo sapiens; PC-3, prostatic cancer, 96 h MTT
Description: (§2) Human acute myeloid leukemia cells HL-60, human chronic myeloid leukemia cells K562, human prostate cancer cell line PC-3, human hepatoma cells HepG-2, human colon cancer cells HC-T116, and human cervical cancer cell line Hela were purchased from American Type Culture Collection (ATCC). Human acute myeloid leukemia cells MOLM-13 were purchased from DSMZ-Deutsche Sammlung von Mikroorganismen und Zellkulturen GmbH (Braunschweig Germany).
as §1

[14] = tested on: HepG-2; assay: as above; format: cell-based; settings: Homo sapiens, HepG2; HepG-2, liver cancer, 96 h MTT
Description: as §2, §1

[15] = tested on: Hela; assay: as above; format: cell-based; settings: Homo sapiens, cervical carcinoma, 96 h MTT
Description: as §2, §1

[16] = tested on: HCT-116; assay: as above; format: cell-based; settings: Homo sapiens; HCT-116, colorectal cancer, 96 h MTT
Description: as §2, §1

[17] = tested on: A549/T xenograft; assay: A549/T xenograft model in BALB/c-nu mice; format: in vivo; settings: i.p. every other day, 10 times, colchicine 0.5 mg/kg, paclitaxel 10 mg/kg, methylaminocolchicine 0.25 and 0.5 mg/kg
Description: Male BALB/c-nu mice (aged 6-8 weeks and weighing 18-20 g) were purchased from Beijing HFK Bioscience Co., Ltd. A549/T cells in logarithmic growth phase were mixed with Matrigel, and inoculated subcutaneously in the right armpit of a BALB/c-nu mouse at a density of 5×10^6 cells/mouse.
The mental state of the mice was monitored every day. The mouse weight was measured and recorded, and mouse weight change curves were plotted based on the average body weight of each group. The long and short diameters of tumors were measured every two days, and the tumor volume was calculated according to the tumor volume calculation formula: tumor volume=(long diameter×short diameter^2)/2. Tumor growth curves were plotted (FIG. 1A).

[18] = tested on: K562; assay: Cell growth inhibition assay, suspension cells, Trypan Blue counting, 72 h; format: cell-based; settings: Homo sapiens, K562, leukemia
From the text: as §2
(§3) Suspension cells: Leukemia cells HL-60, MOLM-13, and K562 were inoculated into a 24-well plate at a density of 0.5-1×10^5 cells/mL. Subsequently, the cells were incubated with different concentrations of compounds in an incubator for 72 h. Then, the culture plate was removed from the incubator. In each well, the cells and the compounds were mixed well; 50 μL of cell suspension was transferred and mixed well with 50 μL of Trypan Blue (0.4%), followed by counting microscopically.
(§4) Cell growth inhibition rate was calculated according to the following formula. The growth inhibition rate GI50 (the concentration that results in inhibiting cell growth by 50%) was calculated by GraphPadPrism5.
(§5) Growth inhibition rate=(1−Cell count of the drug group/Cell count of the control group)×100%.

[19] = tested on: MOLM-13; assay: as above; format: cell-based; settings: Homo sapiens, MOLM-13, leukemia
From the text: as §2, §3, §4, §5

[20] = tested on: HL-60; assay: as above; format: cell-based; settings: Homo sapiens, HL-60, leukemia
From the text: as §2, §3, §4, §5

[21] = tested on: paclitaxel-resistant A549/T cells; settings: 96 h
Description: as §10

[22] = A549 cells, salts (Table 3), read-out: GI50
[23] = ratio of GI50 A549/T to A549, salts (Table 3)
[24] = Homo sapiens, A549 parental cells, read-out: GI50 ± SD

T1 sequence (P02550 whole entry): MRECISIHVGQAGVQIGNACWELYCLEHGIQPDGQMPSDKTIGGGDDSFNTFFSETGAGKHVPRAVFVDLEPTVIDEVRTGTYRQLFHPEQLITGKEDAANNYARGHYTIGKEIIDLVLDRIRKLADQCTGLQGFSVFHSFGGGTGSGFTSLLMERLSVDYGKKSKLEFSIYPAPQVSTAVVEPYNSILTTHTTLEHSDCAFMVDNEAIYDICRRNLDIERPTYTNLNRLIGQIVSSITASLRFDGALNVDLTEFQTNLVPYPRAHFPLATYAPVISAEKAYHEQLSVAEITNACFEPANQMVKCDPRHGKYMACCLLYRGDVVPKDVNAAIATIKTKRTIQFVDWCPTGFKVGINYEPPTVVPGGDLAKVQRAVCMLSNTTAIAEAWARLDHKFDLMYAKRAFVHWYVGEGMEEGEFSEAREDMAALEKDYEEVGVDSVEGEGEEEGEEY
T1 sequence (P02554 whole entry): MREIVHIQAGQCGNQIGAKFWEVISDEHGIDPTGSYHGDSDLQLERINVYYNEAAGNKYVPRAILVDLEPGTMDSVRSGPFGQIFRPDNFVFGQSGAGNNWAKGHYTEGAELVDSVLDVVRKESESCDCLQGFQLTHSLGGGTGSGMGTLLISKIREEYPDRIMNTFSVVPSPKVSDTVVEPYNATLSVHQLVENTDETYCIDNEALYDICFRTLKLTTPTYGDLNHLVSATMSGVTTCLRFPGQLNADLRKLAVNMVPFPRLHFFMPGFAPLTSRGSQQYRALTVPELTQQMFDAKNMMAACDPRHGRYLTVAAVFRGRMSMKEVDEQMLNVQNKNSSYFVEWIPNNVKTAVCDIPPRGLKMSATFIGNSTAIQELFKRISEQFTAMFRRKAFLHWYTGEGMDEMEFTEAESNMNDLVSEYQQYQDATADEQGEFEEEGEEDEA

Methylaminocolchicine Mesylate
GI50 [1, 22]: 17 nM
GI50 [2]: 29.9 nM
RI: resistance index [2, 23]: 1.76

CC1(C)CCC(CN2CCN(c3ccc(C(=O)NS(=O)(=O)c4ccc(NCC5CCOCC5)c([N+](=O)[O-])c4)c(Oc4cnc5[nH]ccc5c4)c3)CC2)=C(c2ccc(Cl)cc2)C1 [Venetoclax]
inhibition at 5 µM [3]: 23.2%
inhibition at 10 µM [3]: 57.7%
inhibition at 20 µM [3]: 95.5%

CC[C@]1(O)C[C@H]2CN(CCc3c([nH]c4ccccc34)[C@@](C(=O)OC)(c3cc4c(cc3OC)N(C=O)[C@H]3[C@@](O)(C(=O)OC)[C@H](OC(C)=O)[C@]5(CC)C=CCN6CC[C@]43[C@@H]65)C2)C1 [Vincristine]
Effect on tubulin polymerization [4]: Like vincristine, colchicine could inhibit tubulin polymerization
GI50 [5]: 262 ± 6.8 nM
RI: resistance index [5]: 14.47
GI50 [6]: 2.69 ± 1.53 nM
GI50 [7]: 16.7 ± 6.87 nM
GI50 [8]: 159 ± 44.6 nM
GI50 [9]: 268 ± 13.1 nM
RI: resistance index [9]: 99.68
GI50 [1, 24]: 45.6 ± 3.68 nM
Effect on tubulin polymerization (known action of control drugs) [10]: inhibits it
GI50 [11]: 576 ± 80.7 nM
RI: resistance index [11]: 3.63
GI50 [12]: 1130 ± 12.7 nM
RI: resistance index ([2]; ratio of GI50 A549/T to A549): 24.7

Methylaminocolchicine Hydrochloride
GI50 [1, 22]: 16.9 nM
GI50 [2]: 63.7 nM
RI: resistance index [2, 23]: 3.77

Methylaminocolchicine p-Toluenesulfonate
GI50 [1, 22]: 18.3 nM
GI50 [2]: 72.7 nM
RI: resistance index [2, 23]: 3.98

COc1cc2c(c(OC)c1OC)-c1ccc(OC)c(=O)cc1[C@@H](NC(C)=O)CC2 [Colchicine]
GI50 [13]: 90.5 ± 25.2 nM
GI50 [14]: 57.7 ± 5.41 nM
GI50 [15]: 124 ± 8.41 nM
GI50 [16]: 79.3 ± 6.59 nM
GI50 [5]: 838.2 ± 2.62 nM
GI50 [6]: 10.9 ± 1.26 nM
GI50 [7]: 57.9 ± 7.55 nM
GI50 [8]: 51.4 ± 10.8 nM
GI50 [9]: 88.8 ± 9.83 nM
GI50 [1, 24]: 38.4 ± 3.37 nM
GI50 [11]: 251 ± 61 nM
Tumor growth inhibition [17]: neither paclitaxel nor colchicine can significantly inhibit the tumor growth
GI50 [18]: 10.7 ± 1.5 nM
GI50 [19]: 11.6 ± 1.21 nM
GI50 [20]: 9.3 ± 3.7 nM
GI50 [12]: 1083 ± 2.37 nM

Methylaminocolchicine Sulfate
GI50 [1, 22]: 21.9 nM
GI50 [2]: 42.4 nM
RI: resistance index [2, 23]: 1.94

Methylaminocolchicine Tartrate
GI50 [1, 22]: 16.2 nM
GI50 [2]: 32.4 nM
RI: resistance index [2, 23]: 1.99

CN(C)CC#Cc1ccc(OCCCc2sc(N3CCc4cccc(C(=O)Nc5nc6ccccc6s5)c4C3)nc2C(=O)O)c(F)c1 [A1155463]
inhibition at 5 µM [3]: 6.97%
inhibition at 10 µM [3]: 12.1%
inhibition at 20 µM [3]: 23.7%

CNc1ccc2c(cc1=O)C(NC(C)=O)CCc1cc(OC)c(OC)c(OC)c1-2 (stereo not drawn) [Methylaminocolchicine]
GI50 [13]: 9.19 ± 0.81 nM
GI50 [14]: 7.05 ± 1.74 nM
GI50 [15]: 9.97 ± 2.34 nM
GI50 [16]: 9.16 ± 4.19 nM
GI50 [5]: 11.4 ± 1.2 nM
GI50 [6]: 6.41 ± 2.39 nM
GI50 [7]: 11.2 ± 1.17 nM
GI50 [8]: 20.7 ± 2.8 nM
Growth inhibition rate ([21]; methylaminocolchicine alone 40 nM): 3.08% and 0.97%
Growth inhibition rate ([21]; methylaminocolchicine alone 80 nM): 42.77% and 37.66% and 38.92%
GI50 [9]: 36.3 ± 6.77 nM
GI50 [1, 24]: 6.88 ± 0.67 nM
GI50 [11]: 47.6 ± 2.82 nM
inhibition at 0.02 µM ([3]; read-out: Growth inhibition rate, A549/T, 96 h, methylaminocolchicine alone 20 nM): 1%
inhibition at 0.08 µM ([3]; read-out: Growth inhibition rate, A549/T, 96 h, methylaminocolchicine alone 80 nM): 34.5%
GI50 [18]: 5 ± 0.32 nM
GI50 [19]: 4.87 ± 0.86 nM
GI50 [20]: 3.5 ± 0.14 nM
GI50 [12]: 23.64 ± 0.06 nM

CC(=O)O[C@H]1C(=O)[C@@]2(C)[C@H]([C@H](OC(=O)c3ccccc3)[C@]3(O)C[C@H](OC(=O)[C@H](O)[C@@H](NC(=O)c4ccccc4)c4ccccc4)C(C)=C1C3(C)C)[C@]1(OC(C)=O)CO[C@@H]1C[C@@H]2O [Paclitaxel]
GI50 [5]: 1130 ± 228 nM
RI: resistance index [5]: 16.73
GI50 [6]: 3.52 ± 0.95 nM
GI50 [7]: 67.3 ± 5.92 nM
GI50 [8]: 58 ± 9.62 nM
GI50 [9]: 604 ± 28.6 nM
RI: resistance index [9]: 171.48
GI50 [1, 24]: 23.1 ± 1.39 nM
Effect on tubulin polymerization (known action of control drugs) [10]: promotes tubulin polymerization
GI50 [11]: 941 ± 265 nM
RI: resistance index [11]: 16.24
Tumor growth inhibition [17]: neither paclitaxel nor colchicine can significantly inhibit the tumor growth
GI50 [12]: 4760 ± 75 nM
RI: resistance index ([2]; ratio of GI50 A549/T to A549): 209.45

CC1(C)CCC(c2ccc(Cl)cc2)=C(CN2CCN(c3ccc(C(=O)NS(=O)(=O)c4ccc(N[C@H](CCN5CCOCC5)CSc5ccccc5)c(S(=O)(=O)C(F)(F)F)c4)cc3)CC2)C1 [Navitoclax]
inhibition at 5 µM [3]: 2.84%
inhibition at 10 µM [3]: 67.7%
inhibition at 20 µM [3]: 96.3%

Cc1c(-c2ccc(N3CCc4cccc(C(=O)Nc5nc6ccccc6s5)c4C3)nc2C(=O)O)cnn1CC12CC3CC(CC(C3)C1)C2 [A1331852]
inhibition at 5 µM [3]: 5.17%
inhibition at 10 µM [3]: 11.2%
inhibition at 20 µM [3]: 17.5%

— patent US20240238223A1 (Shenyang Pharmaceutical University, priority 2023, published 2024)
